Results as given in patent US10357035B2, “Microbiocidal anilide derivatives” (SYNGENTA PARTICIPATIONS AG, priority 2015, dated 2019).

SMILES | melting point
COc1ccnc(C(=O)Nc2ccc(OC3CCCCC3)cc2)c1O [I.b.66, N-[4-(cyclohexoxy)phenyl]-3-hydroxy-4-methoxy-pyridine-2-carboxamide] | 114 to 117 °C
CC1(C)CCC(Oc2ccc(NC(=O)c3cccc4ncoc34)c(F)c2)CC1 [I.r.133, N-[4-(4,4-dimethylcyclohexoxy)-2-fluoro-phenyl]-1,3-benzoxazole-7-carboxamide] | 130 to 132 °C
